Measurements reported in patent publication US9163044B2, “Carbon monoxide releasing molecules and uses thereof” (Alfama, Inc., priority 2011, dated 2015).

Assays:
[1] = tissue CO distribution in CD-1 female mice; type: in vivo; conditions: for CO levels in the liver compared with blood, kidney, heart and lung tissues (in words): 50 mg/kg i.v., CD-1 female mice
Source text: Carbon monoxide-releasing molecules (CO-RMs) are carriers of carbon monoxide (CO) and can release CO in vivo. CO can bind to hemoglobin in the blood and to various heme proteins in cells. Vreman et al. Anal Biochem 341:280-289 describes a method to release CO bound to tissues into the gas phase, and quantify it using GC-RCP chromatography. We applied this methodology to assay CO in various tissues of mice treated with CO-RMs (see Example 2, herein). However, since the CO release method of Vreman (in vitro incubation with sulfosalicylic acid) also releases CO from the CO-RM, the CO released from tissue samples represents CO bound to tissue proteins and CO from CO-RM compound accumulated in tissue. For CO-RM compounds with slow CO release rates in vivo, the CO measured at the earliest sampling point (5 min after CO-RM administration) may therefore mostly be a measure for the tissue distribution of the intact CO-RM.
The compound was dissolved in PBS and the acids neutralized with 3 eq. NaOH (from a NaOH stock solution 2.5M). The pH was brought down to about 7.5 by adding HCl (from a stock solution 1 M). The compound was then administered i.v. (50 mg/kg in 150 μL) to two CD-1 female mice (Charles River). The mice were warmed for ten minutes under an infrared lamp to facilitate the i.v. administration into a tail vein. Five and twenty minutes after the dosing, the two mice were anesthetized with IsoFluorane, and the blood was collected from the retro-orbital plexus using a Pasteur pipette containing ˜20 μL of heparin solution. The animal was opened; the portal vein was cut and the organs were perfused by injecting 10-15 mL of cold PBS in the left ventricle of the heart. Then the heart, kidneys, liver and lung were collected, briefly washed with potassium phosphate buffer, dried with a paper towel and snap frozen in liquid nitrogen. Samples of the freshly collected blood were transferred to AVOXimeter 4000 cuvettes (ITC) to measure the levels of carboxyhemoglobin (COHb), oxyhemoglobin (O2Hb) and methemoglobin (MetHb) using a portable AVOXimeter 4000 CO-oximeter. The results are shown as mean percentage of total hemoglobin species in circulation. The organs and blood were conserved at −20° C. until the CO quantization was done.
For CO quantization, the protocol described by Vreman et al was followed. The organs were cut into small pieces, which were weighed and 4 volumes of water (a volume corresponding to four times the weight of the tissue sample) were added to each organ sample. The tissues were homogenized using a tissue tearer. Aliquots of homogenate ([…]) were placed into vials to which were added water ([…]) and sulfosalicylic acid (SSA, 5 μL, 30% [wt/vol]) immediately before they were closed with a gas-tight septum cap. The vials were incubated on ice for at least 20 min before being analyzed by GC-RCP (in later experiments, the incubation time was extended to 45 minutes). The amount of CO was calculated using a calibration curve prepared from CO standards. […] COHb was determined using an oximeter (AVOXimeter 4000, USA).
Table 6 provides the CO distribution in blood, heart, liver, lung and kidney following Compound 3b administration at 50 mg/kg by […]. CO was assayed by GC-RCP, 5 and 20 minutes after administration of the compound. The CO concentration in the several organs is normalized to the amount of CO quantified in the blood (CO concentration as fraction of concentration in blood 50 mg/kg Compound 3b injected i.v. at t=0; CO assayed in tissues by GC at t=5 min and t=20 min).

[2] = tested on: liver ischemia-reperfusion model; assay: liver ischemia-reperfusion model; type: in vivo, C57BL/6 mice; conditions: 30 mg/kg i.p. 1 h before and 1 h after surgery; ALT 24 h later
Procedure: Liver ischemia-reperfusion model in C57BL/6 mice. In anesthetized C57BL/6 mice, the hepatic artery and portal vein were clamped for 30 min; 24 h later, serum ALT levels were determined. Compound 3b was dosed i.p. at 30 mg/kg each 1 h before and 1 h after surgery.
FIG. 20 depicts the effect of Compound 3b in the Ischemia-Reperfusion model. In anesthetized C57BL/6 mice, the hepatic artery and portal vein were clamped for 30 min; 24 h later, serum ALT levels were determined. Compound 3b was administered by i.p. injection at 30 mg/kg, 1 hour before and 1 h after surgery.

[3] = tested on: lethal APAP liver failure model; assay: lethal APAP liver failure model (500 mg/kg APAP i.p.), survival; conditions: 2×120 mg/kg, 1 h and 3 h or 3 h and 5 h after APAP (500 mg/kg); 4 days
Procedure: Compound 3b was tested in a lethal APAP liver failure model (see, e.g. Imaeda et al. J Clin Invest (2009) 119:305-14).
Male C57BL/6 mice fasted overnight to increase CyP450 activity. APAP dosed i.p. at 500 mg/kg. Survival monitored over 3 to 5 days.
FIGS. 18A-18B depicts the survival curve of C57BL/6 mice injected (i.p.) with 500 mg/kg of APAP and treated with Compound 3b. Mice were fasted overnight and APAP was administered afterward (n=15). Compound 3b was administered at a dose of 120 mg/kg at 1 h and 3 h (A) or at 3 h and 5 h (B) after APAP administration. Mice survival was monitored for 4 days.
Mice were fasted overnight and APAP was administered afterward (n=15). Compound 3b was administered at a dose of 120 mg/kg (ip) at +3 h or +4 h after APAP administration. Another group of mice received NAC (150 mg/kg, ip) at +1 h after APAP. The remaining two groups are administered in NAC+ Compound 3b combination mode; one group of mice was administered with NAC (150 mg/kg, ip) at +1 h plus Compound 3b (120 mg/kg, ip)+3 h and other with Compound 3b (150 mg/kg, ip) at +1 h plus Compound 3b (120 mg/kg, ip)+4 h. Mice survival was monitored for 4 days.

[4] = in vitro metabolism study: decay on incubation with liver microsomes; type: in vitro ADME; conditions: one hour / 60 minutes incubation
Procedure: Sixty percent decay could release up to 1.8 molar equivalents of CO. […] Therefore liver microsomes accelerate the decomposition of the compound. […] Microsomes were incubated with Compound 1b using closed vials to enable quantitative measurement of the released CO. As a control, Compound 1b was incubated under similar conditions in the absence of microsomes.
In an in vitro metabolism study of the CO release kinetics of Compound 3b, it was determined that 80% of Compound 3b decayed in 60 minutes incubation with liver microsomes. In order to investigate if this accelerated decomposition of Compound 3b in the presence of microsomes was inducing a faster CO release from the compound, the CO release profile of Compound 3b in the presence of liver microsomes was determined. Microsomes were incubated with Compound 3b using closed vials to enable quantitative measurement of the released CO. As a control, Compound 3b was incubated under similar conditions in the absence of microsomes. […] The initial rate of CO release is 0.0297 CO equivalents (297.22 pmol) per minute in the presence of microsomes and 0.0072 CO equivalents (72.265 pmol) per minute in the absence of microsomes.

[5] = tested on: murine partial hepatectomy model; assay: liver regeneration, murine partial (70%) hepatectomy model; type: in vivo, mice; conditions: 2×100 mg/kg
Procedure: Liver regeneration in the murine partial hepatectomy model to test for regenerative activity. Model: partial (70%) liver resection in mice and follow rate of regeneration.
FIG. 22 depicts the effect of Compound 3b in a model of liver regeneration. Animals were anesthetized and 70% of the liver was resected, corresponding to the left and median liver lobes. Compound 3b was administered (2×100 mg/kg) 1 h before and 1 h after surgery. Two days later, animals were sacrificed, livers harvested, weighed, and stained for phospho histone H3 (PH3, a specific marker for cell division).

[6] = storage stability of the solid; type: physicochemical; conditions: brown vials, ambient temperature, under N2
Source text: Following the procedure described by Beck and coworkers (Achatz et al., Anorg. Allg. Chem (2005) 631:2339-2346) saponification of compound (3-a) or (3-c) with NaOH followed by protonation with an acid (e.g., HCl or H2SO4) in aqueous solution led to the formation of tricarbonyl[tris(2-isocyano-2-methyl-propionic acid)]Mo(0) (3-b). Compound (3-b) is stable when stored in brown vials at ambient temperature under N2 for over 6 months or more.

Row | Compound | CO levels in the liver compared with blood, kidney, heart and lung tissues (in words) [1] | serum ALT [2] [U/L] | CO concentration as fraction of concentration in blood: Blood, 5 min ([1]; 50 mg/kg, blood, t=5 min) | CO concentration as fraction of concentration in blood: Blood, 20 min ([1]; 50 mg/kg, blood, t=20 min) | CO concentration as fraction of concentration in blood: Heart, 5 min ([1]; 50 mg/kg, heart, t=5 min) | CO concentration as fraction of concentration in blood: Heart, 20 min ([1]; 50 mg/kg, heart, t=20 min) | CO concentration as fraction of concentration in blood: Kidney, 5 min ([1]; 50 mg/kg, kidney, t=5 min) | CO concentration as fraction of concentration in blood: Kidney, 20 min ([1]; 50 mg/kg, kidney, t=20 min) | CO concentration as fraction of concentration in blood: Liver, 5 min ([1]; 50 mg/kg, liver, t=5 min) | CO concentration as fraction of concentration in blood: Liver, 20 min ([1]; 50 mg/kg, liver, t=20 min) | CO concentration as fraction of concentration in blood: Lung, 5 min ([1]; 50 mg/kg, lung, t=5 min) | CO concentration as fraction of concentration in blood: Lung, 20 min ([1]; 50 mg/kg, lung, t=20 min) | CO concentration in the liver relative to blood ([1]; five minutes after i.v. injection) | survival [3] [%] | compound decayed on incubation with liver microsomes [4] [%] | liver weight increase 48 h after resection ([5]; 1 h before and 1 h after surgery, control 89%) [%] | PH3 staining (cell division), in words ([5]; two days after resection) | stable when stored [6]
1 | CC([N+]#[C][Mo-6]([C]#[O+])([C]#[O+])([C]#[O+])([C]#[N+]C(C)C(=O)O)[C]#[N+]C(C)C(=O)O)C(=O)O (stereo not drawn) [Compound 2b, tricarbonyl[tris(2-isocyanopropionic acid)]Mo(0)] | increased CO levels in the liver |  |  |  |  |  |  |  |  |  |  |  |  |  |  |  |  | 
2 | [C-]#[N+]C(C)(C)C(=O)O.[C-]#[N+]C(C)(C)C(=O)O.[C-]#[N+]C(C)(C)C(=O)O.[C-]#[O+].[C-]#[O+].[C-]#[O+].[Mo] [Compound 3b, tricarbonyl[tris(2-isocyano-2-methyl-propionic acid)]Mo(0)] | increased CO levels in the liver | 29 | 1 | 1 | 0.046 ± 0.012 | 0.072 ± 0.055 | 0.419 ± 0.295 | 0.074 ± 0.028 | 5.26 ± 3.18 | 0.163 ± 0.062 | 0.049 ± 0.020 | 0.060 ± 0.046 | five times higher in the liver than in blood | 100 | 80 | 102 | increases PH3 staining | over 6 months
3 | tricarbonyl[tris(isocyanoacetic acid)]Mo(0) [Compound 1b] | no preferential accumulation of CO in the liver |  |  |  |  |  |  |  |  |  |  |  |  |  | 60 |  |  | 
